Results published in US8901315B2, “Thienopyrazole derivative having PDE7 inhibitory activity” (Daiichi Sankyo Company, Limited, priority 2004, dated 2014).
pIC50: −log10 of the molar value. Structures can show the parent of a compound that is named as a salt.

How the values were obtained:
[1] = target: PDE 4 (phosphodiesterase IV); assay: PDE 4 inhibiting effect (3H-cAMP hydrolysis, PDE 4 active fraction from Balb/c mouse liver); type: biochemical; conditions: PDE 4 fraction from Balb/c mice liver, 0.064 μM cAMP, 2 hours at 25° C.; read-out: PDE4 IC50
Procedure: Methods for Evaluating the PDE 4 Inhibiting Effect
The PDE 4 (phosphodiesterase IV) inhibiting effect of the compounds of the present invention was performed by the following method, which was modified assay method described in Biochemical. […] That is, the livers obtained from three Balb/c mice (male, 12 weeks: obtainable from CLEA Japan, Inc.) were suspended with 30 mL of buffer solution B [20 mM of bis-tris, 5 mM of 2-mercaptoethanol, 2 mM of benzamidine, 2 mM of EDTA, 0.1 mM of 4-(2-aminoethyl)benzenesulfonyl hydrochloride, 50 mM of sodium acetate; pH 6.5], then homogenized by Polytron® homogenizer. The homogenate were centrifuged under 25,000×G for 10 minutes at 4° C. The supernatant was separated and thus obtained supernatant was further centrifuged under 100,000×G for 60 minutes at 4° C., and then filtrated with 0.2 μm filter to obtain the soluble fraction. • (2) The obtained soluble fraction was filled in equilibrium DEAE sepharose column (1×10 cm) with buffer solution B, and phosphodiesterase fractions were eluted by 120 mL of buffer solution B with linear gradient from 0.05 to 1M sodium acetate concentration. 5 mL each of 24 eluents were collected, and each eluents were examined for cyclic AMP metabolic activities of phosphodiesterase. […] After the reaction, suspension of Sephadex®-QAE in 10 mM of HEPES-Na (pH 7.0) was added to the reaction mixture, and the mixture was left at rest for 5 minutes.

[2] = target: PDE 7 (phosphodiesterase VII) (Homo sapiens (Human), UniProt Q13946); assay: PDE 7 inhibiting effect (3H-cAMP hydrolysis, PDE 7 active fraction from MOLT-4 cells); type: biochemical; conditions: PDE 7 fraction from MOLT-4 cells, 0.064 μM cAMP, 10 μM rolipram, 2 hours at 25° C.; read-out: PDE7 IC50
Procedure: Methods for Evaluating the PDE 7 Inhibiting Effect
The PDE 7 (phosphodiesterase VII) inhibiting effect of the compounds of the present invention was performed by the following method, which was modified assay method described in Biochemical. Pharmacol. 48(6), 1219-1223 (1994). • (1) The active fraction of PDE 7 (phosphodiesterase VII) was obtained. That is, MOLT-4 (obtainable from ATCC as ATCC No. CRL-1582), which was cell line of human acute lymphoblastic lymphoma T cells, was incubated in RPMI1640 culture medium containing 10% fetal bovine serum to obtain 5×10^8 MOLT-4 cells. The cells were collected by centrifugation and suspended with 10 mL of buffer solution A [25 mM of tris-HCl, 5 mM of 2-mercaptoethanol, 2 mM of benzamidine, 2 mM of EDTA, 0.1 mM of 4-(2-aminoethyl)benzenesulfonyl hydrochloride; pH 7.5], then homogenized by Polytron® homogenizer. The homogenate were centrifuged under 25,000×G for 10 minutes at 4° C. The supernatant was separated and thus obtained supernatant was further centrifuged under 100,000×G for 60 minutes at 4° C., and then filtrated with 0.2 μm filter to obtain the soluble fraction. • (2) The obtained soluble fraction was filled in equilibrium HiTrap Q column (5 mL×2) with buffer solution A, and phosphodiesterase fractions were eluted by 300 mL of buffer solution A with linear gradient from 0 to 0.8 M NaCl concentration. 5 mL each of 60 eluents were collected, and each eluents were examined for cyclic AMP metabolic activities of phosphodiesterase. […] After the reaction, suspension of Sephadex®-QAE in 10 mM of HEPES-Na (pH 7.0) was added to the reaction mixture, and the mixture was left at rest for 5 minutes.

PDE 7 (phosphodiesterase VII), sequence (Q13946 whole entry): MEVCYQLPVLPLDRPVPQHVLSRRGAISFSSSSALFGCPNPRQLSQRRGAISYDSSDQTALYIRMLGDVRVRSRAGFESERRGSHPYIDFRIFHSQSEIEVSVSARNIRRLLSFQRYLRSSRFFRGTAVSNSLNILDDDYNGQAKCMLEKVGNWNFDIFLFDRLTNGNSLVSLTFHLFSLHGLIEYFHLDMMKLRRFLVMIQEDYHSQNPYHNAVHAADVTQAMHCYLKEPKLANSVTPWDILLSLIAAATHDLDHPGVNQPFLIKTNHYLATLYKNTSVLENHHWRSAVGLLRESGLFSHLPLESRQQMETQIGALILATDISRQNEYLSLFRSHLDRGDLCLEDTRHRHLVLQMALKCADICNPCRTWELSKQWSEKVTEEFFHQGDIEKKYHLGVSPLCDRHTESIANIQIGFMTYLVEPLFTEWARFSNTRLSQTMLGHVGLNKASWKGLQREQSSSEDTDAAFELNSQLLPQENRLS

pIC50 [1]	pIC50 [2]	SMILES
5.92	8.00	Cc1nn(C2CCCCC2)c2sc(C(=O)Nc3ccc(N4CCNCC4)cc3)cc12 [Example 72, 1-Cyclohexyl-3-methyl-N-[4-(1-piperazinyl)phenyl]-1H-thieno[2,3-c]pyrazole-5-carboxamide HCl salt]
5.30	7.00	Cc1nn(C2CCCCC2)c2sc(C(=O)Nc3ccc(N)cc3)cc12 [Example 99, N-(4-Aminophenyl)-1-cyclohexyl-3-methyl-1H-thieno[2,3-c]pyrazole-5-carboxamide]
5.85	8.21	Cc1nn(C2CCCCC2)c2sc(C(=O)Nc3ccc(N4C(=O)CN(C)C4=O)cc3)cc12 [Example 203, 1-Cyclohexyl-3-methyl-N-[4-(3-methyl-2,5-dioxo-1-imidazolidinyl)-phenyl]-1H-thieno[2,3-c]pyrazole-5-carboxamide]
5.46	7.26	Cc1nn(C2CCCCC2)c2sc(C(=O)Nc3ccc(NC=O)cc3)cc12 [Example 53, 1-Cyclohexyl-N-[4-(formylamino)phenyl]-3-methyl-1H-thieno[2,3-c]pyrazole-5-carboxamide]
5.62	7.48	Cc1nn(C2CCCCC2)c2sc(C(=O)Nc3ccc(CN4C(=O)CN(C)C4=O)cc3)cc12 [Example 202, 1-Cyclohexyl-methyl-N-{4-[(3-methyl-2,5-dioxo-1-imidazolidinyl)-methyl]phenyl}-1H-thieno[2,3-c]pyrazole-5-carboxamide]
5.30	7.48	CC(=O)c1ccc(NC(=O)c2cc3c(C)nn(C4CCCCC4)c3s2)cc1 [Example 38, N-(4-Acetylphenyl)-1-cyclohexyl-3-methyl-1H-thieno[2,3-c]pyrazole-5-carboxamide]
5.46	7.27	Cc1nn(C2CCCCC2)c2sc(C(=O)Nc3ccc(N4CC[C@@H](O)C4)c(F)c3)cc12 [Example 263, 1-Cyclohexyl-N-{3-fluoro-4-[(3R)-3-hydroxypyrrolidinyl]phenyl}-3-methyl-1H-thieno[2,3-c]pyrazole-5-carboxamide]
6.17	7.66	Cc1nn(C2CCCCC2)c2sc(C(=O)Nc3ccc(C(=O)NCCN(C)C)nc3)cc12 [Example 381]
5.46	7.64	CNC(=O)COc1ccc(NC(=O)c2cc3c(C)nn(C4CCCCC4)c3s2)cc1 [Example 67]
5.00	7.25	Cc1nn(C2CCCCC2)c2sc(C(=O)N[C@H]3CC[C@H](C(=O)O)C3)cc12 [Example 227, (1S,3S)-3-{[(1-Cyclohexyl-3-methyl-1H-thieno[2,3-c]pyrazol-5-yl)-carbonyl]amino}cyclopentanecarboxylic acid]
5.89	7.80	Cc1nn(C2CCCCC2)c2sc(C(=O)N[C@H]3CC[C@H](N4CCN(C)CC4)CC3)cc12 [Example 166, 1-Cyclohexyl-3-methyl-N-[trans-4-(4-methyl-1-piperazinyl)-cyclohexyl]-1H-thieno[2,3-c]pyrazole-5-carboxamide]
5.15	7.64	Cc1nn(C2CCCCC2)c2sc(C(=O)N[C@H]3CC[C@H](C(=O)N(C)C)C3)cc12 [Example 230, 1-Cyclohexyl-N-{(1S,3S)-3-[(dimethylamino)carbonyl]cyclopentyl}-3-methyl-1H-thieno[2,3-c]pyrazole-5-carboxamide HCl salt]
5.92	8.05	Cc1nn(C2CCCCC2)c2sc(C(=O)Nc3ccc(N4CCN(C)CC4)cc3)cc12 [Example 106, 1-Cyclohexyl-3-methyl-N-[4-(4-methyl-1-piperazinyl)phenyl]-1H-thieno[2,3-c]pyrazole-5-carboxamide]
5.85	8.00	CC(=O)N(C)C1CCN([C@H]2CC[C@H](NC(=O)c3cc4c(C)nn(C5CCCCC5)c4s3)CC2)CC1 [Example 180, N-(trans-4-{4-[Acetyl(methyl)amino]-1-piperidinyl}cyclohexyl)-1-cyclohexyl-3-methyl-1H-thieno[2,3-c]pyrazole-5-carboxamide]
5.82	7.24	CNC(=O)c1ccc(NC(=O)c2cc3c(C)nn(C4CCCCC4)c3s2)cn1 [Example 104, 1-Cyclohexyl-3-methyl-N-{6-[(methylamino)carbonyl]-3-pyridinyl}-1H-thieno[2,3-c]pyrazole-5-carboxamide]
< 4.52	7.24	CC(=O)Nc1ccc(NC(=O)c2cc3c(C)nn(C4CCCCCC4)c3s2)cc1 [Example 94, N-[4-(Acetylamino)phenyl]-1-cycloheptyl-3-methyl-1H-thieno[2,3-c]pyrazole-5-carboxamide]
6.15	8.19	Cc1nn(C2CCCCC2)c2sc(C(=O)N[C@H]3CC[C@H](N4CCNCC4)CC3)cc12 [Example 188, 1-Cyclohexyl-3-methyl-N-[trans-4-(1-piperazinyl)cyclohexyl]-1H-thieno[2,3-c]pyrazole-5-carboxamide]
5.47	8.35	Cc1nn(C2CCCCC2)c2sc(C(=O)Nc3ccc(N4CCC(O)CC4)c(C#N)c3)cc12 [Example 373, N-[3-Cyano-4-(4-hydroxy-1-piperidinyl)phenyl]-cyclohexyl-3-methyl-1H-thieno[2,3-c]pyrazole-5-carboxamide]
5.14	7.72	Cc1nn(C2CCOCC2)c2sc(C(=O)N[C@H]3CC[C@H](N4C[C@@H](C)O[C@@H](C)C4)CC3)cc12 [Example 402, N-[trans-4-(cis-2,6-Dimethylmorpholinyl)cyclohexyl]-3-methyl-1-tetrahydro-2H-pyran-4-yl-1H-thieno[2,3-c]pyrazole-5-carboxamide]
5.60	7.02	Cc1nn(C2CCCCC2)c2sc(C(=O)Nc3ccc(C(=O)N4CCN(C)CC4)cc3)cc12 [Example 32, 1-Cyclohexyl-3-methyl-N-{4-[(4-methyl-1-piperazinyl)carbonyl]-phenyl}-1H-thieno[2,3-c]pyrazole-5-carboxamide]
5.52	7.36	Cc1nn(C2CCCCC2)c2sc(C(=O)Nc3ccc4c(c3)CC(=O)N4)cc12 [Example 26, 1-Cyclohexyl-3-methyl-N-(2-oxo-2,3-dihydro-1H-indol-5-yl)-1H-thieno[2,3-c]pyrazole-5-carboxamide]
5.10	7.24	CC(=O)N1CCN(C[C@H]2CC[C@H](NC(=O)c3cc4c(C)nn(C5CCOCC5)c4s3)CC2)CC1 [Example 360, N-{trans-4-[(4-Acetyl-1-piperazinyl)methyl]cyclohexyl}-3-methyl-1-tetrahydro-2H-pyran-4-yl-1H-thieno[2,3-c]pyrazole-5-carboxamide]
5.30	7.28	CCOC(=O)Nc1ccc(NC(=O)c2cc3c(C)nn(C4CCCCC4)c3s2)cc1 [Example 12, Ethyl 4-{[(1-cyclohexyl-3-methyl-1H-thieno[2,3-c]pyrazol-5-yl)-carbonyl]amino}phenylcarbamate]
6.09	8.70	Cc1nn(C2CCCCC2)c2sc(C(=O)Nc3ccc(N4CCNC4=O)nc3)cc12 [Example 256, 1-Cyclohexyl-3-methyl-N-[6-(2-oxo-1-imidazolidinyl)-3-pyridinyl]-1H-thieno[2,3-c]pyrazole-5-carboxamide]
